Test results published in article PMC8086754 (Journal of medicinal chemistry, 2020).

Tests used:
human i-20S β5i [1] = target: T1, human i-20S β5i (Homo sapiens, UniProt P28062); test: IC50 determination against human i-20S β5i; type: biochemical; conditions: for reduction in β5i activity: relative to PKS2086; for inhibitory activity against β5i (SAR statement in words): relative to the parent compound of the sentence
human c-20S β5c = human c-20S β5c (Homo sapiens, UniProt P28074); test: IC50 determination against human c-20S β5c; type: biochemical; conditions: relative to the parent compound of the sentence
[2] = test system: T cell proliferation in PBMCs; test: Human PBMC proliferation assay; type: cell-based
α-chymotrypsin = α-chymotrypsin (Bos taurus, UniProt P00766); test: Protease counter-screen, α-chymotrypsin; type: biochemical; conditions: compounds at 100, 33.3 and 11.1 μM
cathepsin L = cathepsin L (Homo sapiens, UniProt P07711); test: Protease counter-screen, cathepsin L; type: biochemical; conditions: compounds at 100, 33.3 and 11.1 μM
human i-20S β5i [3] = target: T1, human i-20S β5i; conditions: previously reported; cited from earlier work

Sequence of cathepsin L (P07711 114-333, species assumed): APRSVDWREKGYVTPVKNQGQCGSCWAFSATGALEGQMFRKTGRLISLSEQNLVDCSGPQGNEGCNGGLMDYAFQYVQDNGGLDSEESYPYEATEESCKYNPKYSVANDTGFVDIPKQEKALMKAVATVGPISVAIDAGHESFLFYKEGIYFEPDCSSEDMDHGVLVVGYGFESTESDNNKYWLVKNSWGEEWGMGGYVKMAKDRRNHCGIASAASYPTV

| Compound | inhibitory activity against β5i (SAR statement in words) (human i-20S β5i [1]) | inhibitory activity against β5c (SAR statement in words) (human c-20S β5c) | also measured |
| --- | --- | --- | --- |
| COC[C@H](NC(=O)[C@H](CC(=O)NOC(C)(C)C)NC(=O)CCc1ccccc1)C(=O)NCc1cccc2c1NCCC2 [PKS2226] | – | – | reduction in β5i activity (human i-20S β5i [1]): 114 fold |
| COC[C@H](NC(=O)[C@H](CC(=O)NOC(C)(C)C)NC(=O)CCc1ccccc1)C(=O)NCc1cccc2cccnc12 [PKS2220] | – | – | reduction in β5i activity (human i-20S β5i [1]): 19 fold |
| C[C@H](NC(=O)[C@H](CC(=O)NOC(C)(C)C)NC(=O)CCc1ccccc1)C(=O)NCc1cccc2ncccc12 [PKS2073] | eliminated inhibitory activity | eliminated inhibitory activity | – |
| C[C@H](NC(=O)[C@H](CC(=O)NC(C)(C)C)NC(=O)C(=O)c1c[nH]c2ccccc12)C(=O)NCc1cccc2ccccc12 [PKS3053] | – | – | activity against T cells relative to comparator ([2]; compared to PKS21210): two times more active; activity against T cells relative to comparator ([2]; compared to PKS21272): > 3 times; inhibition of α-chymotrypsin (α-chymotrypsin): weak inhibition; inhibition of cathepsin L (cathepsin L): weak inhibition |
| CC(C)(C)ONC(=O)C[C@H](NC(=O)CCc1ccccc1)C(=O)N[C@@H](Cc1ccc(F)cc1)C(=O)NCc1cccc2ccccc12 [DPLG3] | – | – | β5i inhibitory potency (human i-20S β5i [3]): single-digit nanomolar potency |
| C[C@H](NC(=O)[C@H](CC(=O)NOC(C)(C)C)NC(=O)CCc1ccccc1)C(=O)NCc1ccnc2ccccc12 [PKS2068] | eliminated inhibitory activity | eliminated inhibitory activity | – |
| COC[C@H](NC(=O)[C@H](CCC(=O)NC(C)(C)C)NS(=O)(=O)c1ccc(C)cc1)C(=O)NCc1ccc(F)c2ccccc12 [PKS21265] | – | – | greater potency against T cells ([2]; compared to PKS21209): 2 fold; greater potency against T cells ([2]; compared to PKS21266): 5 fold |
| COC[C@H](NC(=O)[C@H](CC(=O)NOC(C)(C)C)NC(=O)CCc1ccccc1)C(=O)NCc1cccc(OC)c1OC [PKS2211] | – | – | selectivity for β5i over β5c (statement in words) (human i-20S β5i [1]): abolished selectivity |
| C[C@H](NC(=O)[C@H](CC(=O)NOC(C)(C)C)NC(=O)CCc1ccccc1)C(=O)NCc1cccc2[nH]ccc12 [PKS2083] | decreased potency against β5i | increased activity against β5c | – |
| COC[C@H](NC(=O)[C@H](CC(=O)NOC(C)(C)C)NC(=O)CCc1ccccc1)C(=O)NCc1cccc(OC)c1 [PKS2160] | – | – | selectivity for β5i over β5c (statement in words) (human i-20S β5i [1]): abolished selectivity |
| C[C@H](NC(=O)[C@H](CCC(=O)NC(C)(C)C)NC(=O)CCc1ccccc1)C(=O)NCc1ccc(F)c2ccccc12 [PKS21210] | equipotent | – | – |

More lines, main results first:

| inhibitory activity against β5i (SAR statement in words) (human i-20S β5i [1]) | inhibitory activity against β5c (SAR statement in words) (human c-20S β5c) | Compound | also measured |
| --- | --- | --- | --- |
| – | significant loss of affinity | COC[C@H](NC(=O)[C@H](CC(=O)N(C)C)NC(=O)CCc1ccccc1)C(=O)NCc1cccc2ccccc12 [Compound 2230BP] | – |
| abolished the inhibitory activities | abolished the inhibitory activities | COC[C@H](NC(=O)CCc1ccccc1)C(=O)N[C@@H](C)C(=O)NCc1cccc2ccccc12 [PKS2048] | – |
| – | significant loss of affinity | COC[C@H](NC(=O)[C@H](CC(=O)N1CCC1)NC(=O)CCc1ccccc1)C(=O)NCc1cccc2ccccc12 [PKS2209] | – |
| – | abolished the inhibitory activities | NC(=O)C[C@H](NC(=O)CCc1ccccc1)C(=O)N[C@@H](Cc1ccc(F)cc1)C(=O)NCc1cccc2ccccc12 [PKS21083] | – |
